Key:
Androgen receptor [1] = target: T1, Androgen receptor (Homo sapiens, UniProt P10275); assay: Displacement of [3H]DHT from androgen receptor of human MDA-453 cells
T1 sequence (P10275 whole entry): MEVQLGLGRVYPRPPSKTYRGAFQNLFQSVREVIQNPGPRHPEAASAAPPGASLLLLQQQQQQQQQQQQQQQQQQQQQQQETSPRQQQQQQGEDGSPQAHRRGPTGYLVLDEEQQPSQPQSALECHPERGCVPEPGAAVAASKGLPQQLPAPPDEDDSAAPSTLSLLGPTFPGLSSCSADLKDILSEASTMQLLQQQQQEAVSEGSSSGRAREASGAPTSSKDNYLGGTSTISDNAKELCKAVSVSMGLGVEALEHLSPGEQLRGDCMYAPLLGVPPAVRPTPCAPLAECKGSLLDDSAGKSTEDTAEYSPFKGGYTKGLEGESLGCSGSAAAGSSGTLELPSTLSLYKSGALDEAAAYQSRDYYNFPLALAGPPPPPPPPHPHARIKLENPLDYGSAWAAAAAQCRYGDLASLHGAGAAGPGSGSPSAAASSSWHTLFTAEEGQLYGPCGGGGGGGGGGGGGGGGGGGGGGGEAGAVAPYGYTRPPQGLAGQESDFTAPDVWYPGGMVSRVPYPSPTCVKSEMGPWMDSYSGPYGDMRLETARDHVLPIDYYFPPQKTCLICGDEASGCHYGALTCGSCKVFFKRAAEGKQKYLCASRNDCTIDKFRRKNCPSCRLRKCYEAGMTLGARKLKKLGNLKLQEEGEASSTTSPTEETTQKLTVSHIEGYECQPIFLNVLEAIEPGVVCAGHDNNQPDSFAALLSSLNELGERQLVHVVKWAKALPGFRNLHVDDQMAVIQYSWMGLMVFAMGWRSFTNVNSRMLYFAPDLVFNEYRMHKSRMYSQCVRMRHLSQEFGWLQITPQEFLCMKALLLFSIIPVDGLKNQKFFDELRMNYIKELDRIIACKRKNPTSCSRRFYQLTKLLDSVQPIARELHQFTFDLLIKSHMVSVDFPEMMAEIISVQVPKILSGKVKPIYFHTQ

Androgen receptor [2] = target: T1, Androgen receptor
Description: In vitro antagonistic activity against androgen receptor of MDA-453 cells

Androgen receptor [3] = target: Androgen receptor (Homo sapiens, UniProt P10275); settings: lncap
Description: In vitro antagonistic activity against mutant androgen receptor of LNCap cells

| Compound | Ki (Androgen receptor [1]) [nM] | IC50 (Androgen receptor [2]) [nM] | IC50 (Androgen receptor [3]) [nM] |
| --- | --- | --- | --- |
| CC(C)(C)OC(=O)N1C[C@H]2C[C@@H]1[C@H]1C(=O)N(c3ccc(C#N)c(C(F)(F)F)c3)C(=O)N21 | > 5000 | > 5000 | > 5000 |
| CCCCc1ccc(C(=O)N2C[C@@H]3C[C@H]2[C@@H]2C(=O)N(c4ccc([N+](=O)[O-])cc4)C(=O)N32)cc1 | 70 | 60 | 4750 |
| CC(C)(C)OC(=O)N1C[C@@H]2C[C@H]1[C@@H]1C(=O)N(c3ccc(C#N)cc3)C(=O)N21 | 240 | 2540 | 4970 |
| O=C1[C@H]2[C@@H]3C[C@@H](CN3C(=O)c3ccccc3)N2C(=O)N1c1ccc([N+](=O)[O-])cc1 | 10 | > 5000 | 2540 |
| CC(C)(C)OC(=O)N1C[C@@H]2C[C@H]1[C@H]1C(=O)N(c3ccc([N+](=O)[O-])c4ccccc34)C(=O)N21 | – | 1330 | 5860 |
| CC(C)(C)OC(=O)N1C[C@@H]2C[C@H]1[C@@H]1C(=O)N(c3ccc([N+](=O)[O-])c4ccccc34)C(=O)N21 | 60 | 3320 | 4430 |
| CC(C)(C)OC(=O)N1C[C@@H]2C[C@H]1[C@H]1C(=O)N(c3ccc(C#N)cc3)C(=O)N21 | 190 | > 5000 | 3510 |
| N#Cc1ccc(N2C(=O)[C@H]3[C@@H]4C[C@@H](CN4C(=O)c4ccccc4)N3C2=O)cc1C(F)(F)F | 120 | 300 | 2600 |
| CC(C)(C)OC(=O)N1C[C@@H]2C[C@H]1[C@H]1C(=O)N(c3ccc(C#N)c(C(F)(F)F)c3)C(=O)N21 | 180 | 640 | > 5000 |
| CC(C)(C)OC(=O)N1C[C@H]2C[C@@H]1[C@H]1C(=O)N(c3ccc([N+](=O)[O-])cc3)C(=O)N21 | 230 | 250 | 2390 |
| O=C1[C@H]2[C@H]3CC[C@H](C3)N2C(=O)N1c1ccc([N+](=O)[O-])c2ccccc12 | 1 | 1300 | > 5000 |
| N#Cc1ccc(N2C(=O)[C@H]3[C@@H]4C[C@@H](CN4C(=O)Oc4ccc(F)cc4)N3C2=O)cc1C(F)(F)F | 10 | 200 | 3920 |
| O=C1[C@@H]2[C@@H]3CC[C@@H](C3)[C@@H]2C(=O)N1c1ccc([N+](=O)[O-])c(C(F)(F)F)c1 | 5 | 10 | > 5000 |
| N#Cc1ccc(N2C(=O)[C@H]3[C@@H]4C[C@@H](CN4C(=O)Oc4ccc(F)cc4)N3C2=O)c2ccccc12 | 40 | 580 | 1870 |
| CC(C)(C)OC(=O)N1C[C@@H]2C[C@H]1[C@]1(C)C(=O)N(c3ccc(C#N)c(C(F)(F)F)c3)C(=O)N21 | – | 780 | 10400 |
| CCCCc1ccc(C(=O)N2C[C@@H]3C[C@H]2[C@@H]2C(=O)N(c4ccc(C#N)cc4)C(=O)N32)cc1 | 100 | 580 | 6800 |
| O=C1[C@H]2[C@@H]3C[C@@H](CN3C(=O)Oc3ccc(F)cc3)N2C(=O)N1c1ccc([N+](=O)[O-])c2ccccc12 | 10 | 340 | 30000 |
| CC(C)(C)OC(=O)N1C[C@@H]2C[C@H]1[C@@H]1C(=O)N(c3ccc(C#N)c(C(F)(F)F)c3)C(=O)N21 | 40 | 770 | 4380 |
